Laboratory results as given in publication PMC9709406 (Frontiers in Pharmacology, 2022).
Read-outs that look alike come from different tables or passages of the source.

Key:
KYSE70 cells = test: MTT assay, KYSE70; assay type: cell-based, human; conditions: Homo sapiens, KYSE-70; MTT, 48 h, KYSE70, n = 5
In short: (§1)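 Absorbance at 490 nm after 1–4 h MTT incubation gave viability of cells exposed 48 h to test compound (0–50 μM; vehicle 0.1% DMSO). Seeding was 2,200–2,500 cells/well, one day before dosing, in RPMI-1640/10% FBS at 37 °C, 5% CO2.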

SHEE cells = test: MTT assay, normal esophageal epithelial cell line SHEE; assay type: cell-based; conditions: Homo sapiens, 48 h, n = 5
In short: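 Growth inhibition is measured by MTT reduction (A490) following 48 h treatment across 0–50 μM compound, with 0.1% DMSO as control. Taxol-resistant sublines are cultured in medium carrying 100 nm/L paclitaxel.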

KYSE450 cells [1] = test: Annexin V/PI flow cytometry for apoptosis, KYSE450; assay type: cell-based, human; conditions: 48 h
Method: (§2) Cell-apoptosis analysis was carried out by flow cytometry using the Annexin V/PI apoptosis methods. […] Cells were harvested and incubated with 250 μL of 1 × Annexin V binding buffer containing 5 μL PI and 5 μL FITC Annexin V (final concentration 1.8 μg/ml, Biolegend (cat: 640945) for 15 min at room temperature in dark. 200 µL of 1 × binding buffer was added for flow cytometry analysis (BD FACSCalibur™ Flow Cytometer).

H1975 cells = test: MTT assay for cell proliferation and cytotoxicity, H1975; assay type: cell-based, human; conditions: MTT, 48 h, H1975, n = 5, read-out: IC50 48 h H1975
In short: as §1

KYSE70TR cells = test: MTT assay, taxol-resistant KYSE70TR; assay type: cell-based, human; conditions: Homo sapiens; MTT, 48 h, taxol-resistant KYSE70TR, value in parentheses; read-out: IC50 48 h KYSE70TR (data in parentheses) (converted)
Source text: (§3) The human cancer cells (H1650, H1975, KYSE70, KYSE410 and KYSE450) were purchased from the Type Culture Collection of the Chinese Academy of Sciences (Shanghai, China). The human immortalized normal esophageal epithelial cell line SHEE was donated by Dr. Enmin Li from the Laboratory of Tumor Pathology (Shantou University Medical College, Shantou, Guangdong, China). Drug-resistant cells (H1650TR, H1975OR, KYSE70TR, KYSE410TR and KYSE450TR) were induced by China-US (Henan) Hormel Cancer Institute. The cellswere cultured in RPMI-1640 complete growth medium containing 100 U/mL penicillin-streptomycin and 10% FBS. Based on the above medium formula, 100 nm/L paclitaxel was added in taxol-resistant cells, 100 nm/L gefitinib was added in gefitinib-resistant cells. The cells were incubated at 37 °C in an atmosphere containing 5% of CO2. The compounds were dissolved in DMSO to make a 50 mM stock solution and were diluted to the concentration of working solutions with complete growth medium before administration.
(§4) Cells were seeded in 96-well plates with 2,200–2,500 cells/well in100 μL. One day after seeding, test compounds with the concentration between 0 and 50 μM were added with 0.1% DMSO as control. Five multiple wells for each concentration. […] The absorbance at 490 nm was measured using a microplate reader (Thermo).

KYSE410TR cells = test: MTT assay, taxol-resistant KYSE410TR; assay type: cell-based, human; conditions: Homo sapiens; MTT, 48 h, taxol-resistant KYSE410TR, value in parentheses; read-out: IC50 48 h KYSE410TR (data in parentheses) (converted)
Source text: as §3, §4

KYSE450 cells [2] = test: MTT assay, KYSE450; assay type: cell-based, human; conditions: Homo sapiens, KYSE-450; MTT, 48 h, KYSE450, n = 5; read-out: IC50 48 h KYSE450
In short: as §1

KYSE450 cells [3] = test: Cell cycle analysis by flow cytometry, KYSE450; assay type: cell-based, human; conditions: KYSE450, 24 h; icotinib at 2 μM, 3l at 8 μM
Method: (§5) KYSE450/KYSE450TR cells were plated in 6-well plates with a density of 1×10^5 cells/well and cultured overnight. […] Trypsinization treatment and the cells were collected by centrifugation. The cell pellet was re-suspended in 70% ethanol at −20°C for at least 3 h. The cells were washed with PBS and were re-suspended in 250 μL of 0.6% tricine with Renease A for 1 h, then stained in PI (final concentration 1.8 μg/ml, Biolegend cat: 640945) for 15 min in dark. Cells were retransferred to the BD FACSCalibur™ Flow Cytometer. All analyses were performed with FlowJo software v105.3.6.

H1975OR cells = test: MTT assay, osimertinib-resistant H1975OR; assay type: cell-based; conditions: Homo sapiens, NCI-H1975, 48 h, osimertinib-resistant H1975OR, value in parentheses in H1975 column, read-out: IC50 48 h H1975OR (data in parentheses) (converted)
Source text: as §3, §4

H1650 cells = test: MTT assay for cell proliferation and cytotoxicity, H1650; assay type: cell-based; conditions: Homo sapiens, NCI-H1650, 48 h, H1650, n = 5
In short: as §1

KYSE450TR cells [4] = test: MTT assay, taxol-resistant KYSE450TR; assay type: cell-based, human; conditions: Homo sapiens; MTT, 48 h, taxol-resistant KYSE450TR, value in parentheses; read-out: IC50 48 h KYSE450TR (data in parentheses) (converted)
Source text: as §3, §4

KYSE450TR cells [5] = test: Cell cycle analysis by flow cytometry, KYSE450TR; assay type: cell-based, human; conditions: 24 h, icotinib at 8 μM, 3l at 8 μM
Method: as §5

H1650TR cells = test: MTT assay, taxol-resistant H1650TR; assay type: cell-based; conditions: Homo sapiens, NCI-H1650, 48 h, value in parentheses in H1650 column
Source text: as §3
Cells were seeded in 96-well plates with 2,200–2,500 cells/well in100 μL. One day after seeding, test compounds with the concentration between 0 and 50 μM were added with 0.1% DMSO as control. Five multiple wells for each concentration. After 48 h, MTT was added and incubated in the plate for 1–4 h in the incubator. The absorbance at 490 nm was measured using a microplate reader (Thermo).

KYSE410 cells = test: MTT assay, KYSE410; assay type: cell-based, human; conditions: Homo sapiens, KYSE-410; MTT, 48 h, KYSE410, n = 5; read-out: IC50 48 h KYSE410
In short: as §1

KYSE450TR cells [6] = test: Annexin V/PI flow cytometry for apoptosis, KYSE450TR; assay type: cell-based, human; conditions: 48 h
Method: as §2

[7] = target: T1, EGFR wild protein (H672-A1210) (Homo sapiens, UniProt P00533); test: EGFR protein affinity determined with SPR; assay type: binding; conditions: immobilized wild-type EGFR
T1 construct: purchased Active MOTIF 31165
Method: Firstly, EGFR protein (protein concentration : 0.468 μg/μL, Active MOTIF, cat: 31165, lot: 28215004) was covalently immobilized onto a CM5 sensor chip at densities of 2000 response units. […] During the drug-protein interaction, the change of the refractive index was measured in real-time which would allow the plotting of the results of interaction as response units versus time. The interaction results were analyzed under a BIA evaluation 3.0 software.

EGFR = target: T2, EGFR (Homo sapiens, UniProt P00533); test: EGFR kinase assay (ELISA); assay type: biochemical; conditions: 25°C
T2 construct: purchased Active MOTIF
Method: Kinase inhibitory activities of the compounds were evaluated using the Protein Tyrosine Kinase Assay Kit (SignalChem (British Columbia, Canada)). The kinase enzyme of EGFR was purchased from Active MOTIF. The ELISA experiments were carried out according the instructions of the kit. Active kinases were incubated with indicated compounds in 1 × reaction buffer containing 20 μM substrate at 25°C for 1 h and 2 h, respectively. The absorbance was read with a multimode plate reader (PerkinElmer, United States) at 450 nm.

T1 sequence (P00533 672-1210): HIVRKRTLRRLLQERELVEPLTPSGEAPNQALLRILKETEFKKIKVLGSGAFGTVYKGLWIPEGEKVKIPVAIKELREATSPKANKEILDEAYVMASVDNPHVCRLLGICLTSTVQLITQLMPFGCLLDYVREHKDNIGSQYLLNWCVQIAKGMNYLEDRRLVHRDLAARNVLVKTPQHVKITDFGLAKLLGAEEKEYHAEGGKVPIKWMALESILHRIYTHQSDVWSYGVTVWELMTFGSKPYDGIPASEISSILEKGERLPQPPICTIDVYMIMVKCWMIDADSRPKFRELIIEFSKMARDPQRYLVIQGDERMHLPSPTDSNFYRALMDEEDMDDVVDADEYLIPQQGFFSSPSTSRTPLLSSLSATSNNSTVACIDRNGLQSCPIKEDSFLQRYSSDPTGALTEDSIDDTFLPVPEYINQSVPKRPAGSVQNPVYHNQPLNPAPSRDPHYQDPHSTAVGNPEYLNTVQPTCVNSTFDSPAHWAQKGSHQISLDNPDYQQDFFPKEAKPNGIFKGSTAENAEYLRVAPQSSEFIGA
T2 sequence (P00533 25-1210): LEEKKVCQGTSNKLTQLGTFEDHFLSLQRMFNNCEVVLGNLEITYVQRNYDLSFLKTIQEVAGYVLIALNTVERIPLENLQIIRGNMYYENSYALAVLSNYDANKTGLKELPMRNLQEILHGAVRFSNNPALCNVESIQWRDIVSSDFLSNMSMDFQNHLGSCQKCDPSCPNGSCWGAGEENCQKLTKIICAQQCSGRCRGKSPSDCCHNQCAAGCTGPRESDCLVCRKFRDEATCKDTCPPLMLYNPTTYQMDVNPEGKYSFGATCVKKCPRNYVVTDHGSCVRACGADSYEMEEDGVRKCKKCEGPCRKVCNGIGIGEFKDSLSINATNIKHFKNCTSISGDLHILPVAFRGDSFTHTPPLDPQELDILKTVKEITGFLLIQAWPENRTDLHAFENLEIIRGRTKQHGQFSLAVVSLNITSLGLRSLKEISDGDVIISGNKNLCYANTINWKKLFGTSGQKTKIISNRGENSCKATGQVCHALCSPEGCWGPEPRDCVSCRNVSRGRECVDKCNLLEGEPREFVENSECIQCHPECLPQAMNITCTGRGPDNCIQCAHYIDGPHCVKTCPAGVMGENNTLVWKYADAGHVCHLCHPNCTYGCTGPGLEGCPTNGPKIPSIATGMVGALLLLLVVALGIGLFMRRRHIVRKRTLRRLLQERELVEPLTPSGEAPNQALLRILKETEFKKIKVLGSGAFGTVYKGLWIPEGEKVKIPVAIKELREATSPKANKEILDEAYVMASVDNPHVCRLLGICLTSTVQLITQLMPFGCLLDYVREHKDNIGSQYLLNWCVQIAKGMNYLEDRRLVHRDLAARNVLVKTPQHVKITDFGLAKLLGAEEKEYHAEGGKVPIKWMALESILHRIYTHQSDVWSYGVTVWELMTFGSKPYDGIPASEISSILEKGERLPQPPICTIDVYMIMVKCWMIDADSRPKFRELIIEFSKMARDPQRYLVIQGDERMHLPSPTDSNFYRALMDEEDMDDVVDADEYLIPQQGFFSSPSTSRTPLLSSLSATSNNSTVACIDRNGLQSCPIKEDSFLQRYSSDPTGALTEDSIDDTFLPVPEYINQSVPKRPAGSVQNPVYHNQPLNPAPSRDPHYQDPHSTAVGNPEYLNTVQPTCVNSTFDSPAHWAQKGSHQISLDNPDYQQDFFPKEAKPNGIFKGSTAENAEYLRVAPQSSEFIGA

C#Cc1cccc(Nc2ncnc3cc4c(cc23)OCCOCCOCCO4)c1 [icotinib, reference compound]
IC50 (KYSE70 cells): > 50 µM
IC50 (SHEE cells): 19.2 ± 1.29 µM
proportion of apoptotic cells (KYSE450 cells [1]; KYSE450, 2 μM): 7.84%
proportion of apoptotic cells (KYSE450 cells [1]; KYSE450, 4 μM): 12.25%
IC50 (H1975 cells; Homo sapiens, NCI-H1975, 48 h): > 50 µM
IC50 (H1975 cells): 48.3 ± 2.13 µM
IC50 (KYSE70TR cells): > 50 µM
IC50 (KYSE410TR cells): > 50 µM
IC50 (KYSE450 cells [2]): 30.4 ± 1.96 µM
cell cycle phase in which cells were arrested (KYSE450 cells [3]): G1 phase
IC50 (H1975OR cells): > 50 µM
IC50 (H1650 cells): > 50 µM
IC50 (KYSE450TR cells [4]): > 50 µM
cell cycle phase in which cells were arrested (KYSE450TR cells [5]): G1 phase
IC50 (H1650TR cells): > 50 µM
IC50 (KYSE410 cells): > 50 µM
proportion of apoptotic cells (KYSE450TR cells [6]; 5 μM): 8.51%
proportion of apoptotic cells (KYSE450TR cells [6]; 10 μM): 10.43%
Rmax(RU) [7]: 15.74 RU
Kd ([7]; 25°C): 36.1 µM
IC50 (EGFR; incubation 1 h, read-out: IC50 EGFR 1 h): 1.38 nM
IC50 (EGFR; incubation 2 h, read-out: IC50 EGFR 2 h): 38 nM
